The nature of data set [1]: Intrinsic dissolution profile as a function of pH. It counts as physicochemical. To be noted: result in words; for pH dissolution profile: 0.1N HCl (pH 1), pH 4.5 acetate buffer, pH 6.8 phosphate buffer, water, 37° C.; for dissolution behavior at the low pH condition: 0.1N HCl. As for the experimental part: (§1) The opioid salts of the present invention were tested to determine their dissolution profile as a function of pH, and as a function of ethanol concentration in acidic media (dose dumping). To perform these experiments the buffered dissolution media and acidic ethanol solutions were prepared as identified herein, “Preparation of Solutions”. The test procedure was derived from the procedures cited in the United States Pharmacopeia and National Formulary (USP), numbers <1087> and <711>. The dose dumping procedure was adopted from the United States Food and Drug Administration's guidance regarding the dose dumping of oxymorphone. The sampling interval and regimen was defined and each sample analyzed by HPLC. Results from the HPLC analyses were plotted as a function of time and dissolution condition (FIG. 37 through FIG. 97 inclusive, and FIGS. 102-105, 109, 110, 114 and 115). This procedure was used to obtain the pH and dose dumping dissolution profiles disclosed herein. […] All activities within the procedure were conducted and executed for each of the compounds reported herein. Unless otherwise stated HPLC measurements were done and reported at ambient temperature and dissolution testing was done nominally at 37° C.
The following procedures were derived from USP <1087> Intrinsic Dissolution and USP <711> Dissolution methods, as well as manufacturer recommended procedures for use of the International Crystals Laboratories intrinsic dissolution disks.
(§2) The material which is to be subjected to dissolution is weighed using an analytical balance. 45.00-55 mg of the analyte was weighed and transferred to an International Crystals Laboratories fixed/static disk 316 stainless die with a 0.8 cm diameter die cavity. A hardened steel punch was then inserted into the cavity and the material was compressed at 2000 psi for 4-5 minutes using a bench top hydraulic press. The punch is then removed to expose the 0.5 cm^2 pellet surface. A Viton gasket is then placed around the threaded shoulder of the die and a polypropylene cap is threaded onto the die. This process can be repeated to generate as many pellets as is necessary for the experiment.
A Distek Dissolution System equipped with a model number TCS0200C temperature control system was filled with water and set to a temperature of 37.3° C. The vessel cavities were then equipped with four 1 L flat-bottomed Distek dissolution vessels. Four vessels were then filled with 500 mL of the following media: 0.1N HCl, pH 4.5 acetate buffer, pH 6.8 phosphate buffer, and USP grade water. The solutions were allowed to warm in the water bath for approximately 1 hour, but not exceeding 3 hours, or until the temperature of the media matched that of the water bath. Paddles were then mounted to the Distek stirring apparatus above the four dissolution vessels such that the distance between the paddle and the die face is 1 inch. The paddle speed is then set to 50 RPM.
The pellet prepared as described above was submerged into a vessel prepared as described above, with the pellet surface facing up (metal die up, polypropylene cap facing down). Forceps are used to aid this process so that the pellet apparatus can be gently placed into the bottom of the vessel. A timer is used to track the sampling intervals, and is started when the pellet is dropped into the solution. The lid to the dissolution apparatus is then lowered and the stirring apparatus is activated. Some planning is required in spacing out pellet drops such that each vessel can be sampled at the desired time intervals. Sampling is done by aspirating 10 mL of the solution using a Popper® Micro-Mate® Interchangeable Hypodermic Syringe equipped with a Vortex Pharma Group 10 micron cannula porous filter. This filter should be replaced after each use. Although sampling intervals can change from experiment to experiment, the following has been heavily utilized for the experiments described herein.

A short description of data set [2]: Intrinsic dissolution dose dumping profile (ethanol concentration in acidic media, FDA protocol). It counts as physicochemical. To be noted: for dose dumping dissolution profile: 0.1N HCl with 0, 5, 20 and 40% ethanol; for dose dumping profile at the 5% ethanol condition: 5% ethanol in 0.1N HCl; for dose dumping profile at the 20% ethanol condition: 20% ethanol in 0.1N HCl; for active released: in approximately sixty minutes; for release: 40% EtOH in 0.1N HCl.
Source text: A general overview of this concern may be found at http://www.fda.gov/ohrms/dockets/AC/05/slides/2005-4187S2—02_Hussain.ppt. This Oct. 26, 2005 overview presentation by the deputy director OPS/CDER of the FDA and entitled “Preventing Alcohol Induced Dose Dumping is a Desired Product Design Feature” describes the dose-dumping phenomenon. Dose dumping can be employed by those with the deliberate intention of abusing the drug, but may also occur during the normal/moderate consumption of alcohol while taking a prescribed medication. Simply, dose dumping is that condition “in which the complete dose may be more rapidly released from the dosage form than intended, creating a potential safety risk”. Clearly, with the opioid narcotics, dose dumping for the intention of experiencing the “high” or rush, may have severe, even deadly consequences. The presentation further categorizes the results from dose dumping testing as either vulnerable, rugged or uncertain. If the dissolution profile in the presence of alcohol accelerates the release of the active ingredient, the product is classified as vulnerable and would likely not receive FDA market approval. In contrast, a rugged product design is achieved when the dissolution profile of the drug substance, again in the presence of alcohol, is identical to or is available to a lesser extent as compared to the control. The testing regimen recommended within the FDA's draft guidance includes determining the dissolution profile in 0.1N HCl solutions wherein the sample is tested in the medium and at increasing levels of ethanol, specifically at 5, 20 and 40% alcohol.
as §1
The following procedures were derived from the FDA Draft Guidance for Oxymorphone Hydrochloride (recommended in November, 2007).
as §2, with “85.00-95.00” for “45.00-55”
A Distek Dissolution System equipped with a model number TCS0200C temperature control system, was filled with water and set to a temperature of 37.3° C. The vessel cavities were then equipped with four 1 L flat-bottomed Distek dissolution vessels.

The nature of data set [3]: Modified dose dumping protocol: ethanol solutions in the absence of the 0.1N HCl media.

With `COc1ccc2c3c1O[C@H]1C(=O)CC[C@H]4[C@@H](C2)N(C)CC[C@]314.O=C(O)C(O)C(O)C(=O)O` [hydrocodone bitartrate, reference compound], the pH dissolution profile entry in data set [1] is on record as “immediate release (IR) characteristics”. The “dose dumping dissolution profile” value in data set [2] (result in words) is reported as “exhibit dose dumping propensities”.
As for `CN(C)CCCN1c2ccccc2CCc2ccccc21.CN(C)CCCN1c2ccccc2CCc2ccccc21.O=C(O)c1cc2ccccc2c(Cc2c(O)c(C(=O)O)cc3ccccc23)c1O` [imipramine pamoate, reference compound], the “dose dumping dissolution profile” value in data set [2] (result in words) is on record as “exhibited dose dumping properties”.
With `COc1ccc2c3c1O[C@H]1C(=O)CC[C@@]4(O)[C@@H](C2)N(C)CC[C@]314.Cl` [oxycodone hydrochloride, reference compound], the “amount of oxycodone extracted / opiate immediately released” value in data set [3] (40% EtOH (about 80 proof), no 0.1N HCl) is listed as “about 50%”. Moreover, the pH dissolution profile result in data set [1] is reported as “immediate release (IR) characteristics”. The “dose dumping dissolution profile” value in data set [2] (result in words) was “apparent solution equilibrium was obtained within minutes”. In data set [2] (0.1 N HCl without EtOH, result in words), the “dissolution in the control condition” value is reported as “complete dissolution within minutes”. Besides, in data set [2] (at each ethanol level, comparing FIGS. 58 and 59), the “enhancement of the release profile by the acidic media” value is reported as “more than 20 % (absolute)”.
Consider “Amorphous Hydrocodone Pamoate Acetone Solvate [solvated amorphous form]”, for which, in data set [2] (result in words), the “dose dumping dissolution profile” value is reported as “somewhat erratic compared with Form II”.
The same measure, in the same setting: next, “Amorphous Hydrocodone Pamoate Form I [amorphous Form I]”: “somewhat erratic compared with Form II”.
For Amorphous Hydrocodone Pamoate Form II, in data set [1], the “dissolution behavior at the low pH condition” value is “ranks between that observed for Form I and the acetone solvated form”. Also, in data set [2] (result in words), the “dose dumping profile at the 5% ethanol condition” value is listed as “slow (and essentially identical) dissolution response” and the “dose dumping profile at the 20% ethanol condition” value is “slow (and essentially identical) dissolution response”.
For the compound Hydrocodone Xinafoate, the pH dissolution profile result in data set [1] was “extended release at pH 1, and independent release as the pH increases”.
As to “Oxycodone Pamoate [amorphous oxycodone pamoate]”, in data set [3] (0.1N HCl with 0% EtOH, and 5, 20, 40% EtOH without acid, result in words), the “dissolution profile as a function of ethanol concentration” value was “slow linear process”. In addition, the opiate released entry in data set [3] (40% EtOH, over about one hour) is on record as “approximately 60%”. In addition, in data set [3] (40% ethanol condition, FIG. 62), the “pamoate released (apparent pamoate equilibrium solubility)” value is reported as “about 85%” and the “time to apparent pamoate equilibrium solubility” value is recorded as “approximately 45 minutes”. The “time to complete (full) release of the opiate” value in data set [2] (0.1N HCl media, no EtOH) is listed as “about one”. In addition, in data set [2] (result in words), the “dose dumping dissolution profile” value is “no dose dumping benefit”.
“Oxycodone Pamoate [polymorphic form of oxycodone pamoate]”: the pH dissolution profile entry in data set [1] is “essentially identical pH dissolution profile as the amorphous form”. Further, the active released result in data set [2] (0.1N HCl containing 5% EtOH) and in data set [2] (0.1N HCl) was “about 70%” each time. Also, in data set [2] (20% EtOH in 0.1N HCl, reached in about 30 minutes), the “equilibrium solubility (release)” value was about 10%. Besides, the release result in data set [2] (after 3 hours) is recorded as “approximately 40%”; in data set [2] (after about 80 minutes) it was about 10%.
Regarding Oxycodone Xinafoate, the pH dissolution profile entry in data set [1] is recorded as “poor dissolution profile at pH 1 with a gradual release as the pH increases”. For the same compound, in data set [2] (result in words), the “dose dumping dissolution profile” value is on record as “dose dumps immediately at the higher EtOH concentrations”.
Regarding Polymorphic Hydrocodone Pamoate Form II, the “dissolution behavior at the low pH condition” value in data set [1] is listed as “slower release than Form I”. Besides, in data set [2] (result in words), the “dose dumping profile at the 5% ethanol condition” value is “essentially identical to the 0.1N HCl condition” and the “dose dumping profile at the 20% ethanol condition” value is listed as “did not accelerate dose dumping”. In addition, the “dose dumping profile at the 40% ethanol condition” value in data set [2] (40% ethanol in 0.1N HCl, result in words) was “did not promote dose dumping”.

(Values after patent US8329720B1 (Pisgah Laboratories, Inc., priority 2007, dated 2012).)
